Activity calls are given as the source filed them.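 The calls were made as follows: active = IC50 below 20 µM; inactive = the rest.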
Target: Apelin receptor (Homo sapiens) (UniProt P35414)
Assay: blockers of apelin-13-driven APJ signaling – cell-based, CHO-K1 AGTRL-1, PathHunter luminescence, set 4, SAR follow-up (AID 492986)
Details: CHO-K1 AGTRL-1 beta-arrestin

Chain of Apelin receptor (Homo sapiens) (P35414 whole entry, looked up): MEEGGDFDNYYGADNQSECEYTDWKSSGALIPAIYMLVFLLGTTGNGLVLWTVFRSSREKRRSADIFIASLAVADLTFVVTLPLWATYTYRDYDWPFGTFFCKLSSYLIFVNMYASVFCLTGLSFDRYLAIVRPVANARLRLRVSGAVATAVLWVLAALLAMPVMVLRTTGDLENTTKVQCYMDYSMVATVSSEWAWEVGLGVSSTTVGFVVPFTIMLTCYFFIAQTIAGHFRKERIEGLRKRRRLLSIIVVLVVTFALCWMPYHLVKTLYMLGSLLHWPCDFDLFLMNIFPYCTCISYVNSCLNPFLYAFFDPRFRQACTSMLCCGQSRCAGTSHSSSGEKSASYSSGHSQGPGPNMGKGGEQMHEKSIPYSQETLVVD

| IC50 | Compound |
| --- | --- |
| > 79 µM (inactive) | O=C(Oc1coc(CCl)cc1=O)c1ccc(Cl)c([N+](=O)[O-])c1 |
| > 79 µM (inactive) | Cc1ccnc(SCc2cc(=O)c(OC(=O)c3cccc(C#N)c3)co2)n1 |
| > 79 µM (inactive) | Cc1cc(C)nc(SCc2cc(=O)c(OS(=O)(=O)c3ccccc3)co2)n1 |
| > 79 µM (inactive) | Cc1cc(C)nc(SCc2cc(=O)c(OS(=O)(=O)c3ccc([N+](=O)[O-])cc3)co2)n1 |
| > 79 µM (inactive) | O=c1cc(CSc2ccc(F)cc2)occ1O |
| > 79 µM (inactive) | Cc1ccnc(SCc2cc(=O)c(NC(=O)c3ccccc3)co2)n1 |
